Here are results for 1 compound from patent US11053248B2, “[1,2,4]triazolo[1,5-a]pyrimidine compounds as PDE2 inhibitors” (Janssen Pharmaceutica NV, priority 2016, dated 2021).

In series [1] the test system is hPDE3B. Briefly: In vitro assay PDE3 (SPA, 3H-cAMP). The class given is biochemical, human.
Series [2] has as its target T1, PDE2A (Rattus norvegicus, UniProt Q01062).
T1 construct: from tissue; host or cells: rat brain striatal sections (ex vivo)
T1 sequence (Q01062 1-928): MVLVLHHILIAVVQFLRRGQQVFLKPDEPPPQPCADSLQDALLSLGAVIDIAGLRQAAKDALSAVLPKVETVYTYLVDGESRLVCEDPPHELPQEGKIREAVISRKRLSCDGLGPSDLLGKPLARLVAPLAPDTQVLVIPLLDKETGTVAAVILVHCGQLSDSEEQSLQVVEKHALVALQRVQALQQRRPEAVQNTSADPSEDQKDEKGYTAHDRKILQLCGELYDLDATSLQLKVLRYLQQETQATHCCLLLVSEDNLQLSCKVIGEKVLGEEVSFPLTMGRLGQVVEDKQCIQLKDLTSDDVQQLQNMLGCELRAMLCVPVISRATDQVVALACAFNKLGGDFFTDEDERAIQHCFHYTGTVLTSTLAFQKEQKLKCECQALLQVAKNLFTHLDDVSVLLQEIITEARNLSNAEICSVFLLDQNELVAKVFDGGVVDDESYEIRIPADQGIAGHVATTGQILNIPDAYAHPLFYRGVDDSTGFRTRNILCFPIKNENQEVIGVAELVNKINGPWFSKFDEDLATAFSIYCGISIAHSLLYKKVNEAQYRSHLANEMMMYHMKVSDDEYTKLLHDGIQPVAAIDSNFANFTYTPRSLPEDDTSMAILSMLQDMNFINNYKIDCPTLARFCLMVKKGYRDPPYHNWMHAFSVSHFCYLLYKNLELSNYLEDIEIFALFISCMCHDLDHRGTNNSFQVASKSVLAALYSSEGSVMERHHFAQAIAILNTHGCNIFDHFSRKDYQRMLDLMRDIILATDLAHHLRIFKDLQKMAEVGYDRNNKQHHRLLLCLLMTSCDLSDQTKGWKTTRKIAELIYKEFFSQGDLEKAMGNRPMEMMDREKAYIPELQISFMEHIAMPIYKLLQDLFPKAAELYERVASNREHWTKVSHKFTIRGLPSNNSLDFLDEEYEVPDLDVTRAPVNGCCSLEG
Briefly: PDE2 occupancy by ex-vivo autoradiography with [3H]B-17a. The class given is in vivo. Conditions: rat.

Series [3] has as its system mossy fiber synapse. Briefly: Effect on synaptic transmission: weak HFS-induced LTP, hippocampal slices (MEA). The class given is cell-based, rat. The text has this: Effect of Test Compounds on Synaptic Transmission Critical Reagents
Sucrose dissection buffer contained (in mM) sucrose (150), NaCl (40), KCl (4), NaH2PO4.H2O (0.3), MgCl.6H2O (7), NaHCO3 (26), CaCl2.2H2O (0.5), D-glucose (10), equilibrated with 95% O2 and 5% CO2 gas mixture. Artificial cerebrospinal fluid (ACSF) used during equilibration and recording contained (in mM): NaCl (124), KCl (2.7), NaH2PO4.H2O (1.25), MgSO4.7H2O (1.3), NaHCO3 (26), CaCl2.2H2O (2), D-glucose (10), Ascorbic acid (2), equilibrated with 95% O2 and 5% CO2 gas mixture. CNQX and Kynurenic acid were prepared in ACSF at a 50 μM and 1 mM concentration respectively. […] All reagents were from Sigma-Aldrich, unless otherwise indicated. […]
All data were recorded with a MEA set-up commercially available from MultiChannel Systems MCS GmbH (Reutlingen, Germany) composed of a 4-channel stimulus generator and a 60-channels amplifier head-stage connected to a 60-channels A/D card. […]
Extracellular field potential recordings. […] All data were recorded with a MEA set-up commercially available from MultiChannel Systems MCS GmbH (Reutlingen, Germany). Two adjacent electrodes of the chip were selected to stimulate the mossy fibres in the hilar region of the dentate gyrus and the fEPSP was recorded the terminal zone area of the CA3 region of the hippocampus. […]

The term ED50 denotes the dose at which the effect has come halfway, by size or by number of responders. Turning to `C[C@@H]1CCN(c2nccc3ccc(Br)cc23)C[C@H]1c1cc(C(F)F)nc2ncnn12` [Compound 1], the “hPDE3B Emax” value in series [1] stood at 73. For the same compound, in series [1] (0.4 μM cAMP substrate), the “hPDE3B pIC50” value stood at 5.25. Also, the receptor occupancy at 10 mg/kg in series [2] (po, read-out: PDE2 occupancy at 10 mg/kg, route PO (oral), 10 mg/kg, male Wistar rats, striatum, percentage occupancy) stood at 94%. Also, the 50% effective dose (ED50) in series [2] (sc, read-out: PDE occupancy ED50, route SC (subcutaneous), male Wistar rats, dose producing 50% occupancy) worked out at 6.7 mg/kg. Further, in series [3] (hippocampal slice, reported, in words), the “penetration to the tissue” value is on record as “poor”. The “effect on weak HFS-induction of long term potentiation (LTP)” value in series [3] (mossy fiber synapse, hippocampal slices of male Sprague-Dawley rats, FIG. 1) is “did not facilitate the induction of LTP”.
